From patent publication US20240066027A1 (DOMAIN THERAPEUTICS, priority 2020, published 2024)

Biological target: T1, human PAR-2 (hPAR-2) receptor expressed in HEK-293 T cells in an endogenous manner (Homo sapiens, UniProt P55085)
T1 construct: human PAR-2 (hPAR-2) receptor expressed in HEK-293 T cells in an endogenous manner; endogenous in cells; host or cells: HEK-293 T cells
T1 sequence (P55085 26-397): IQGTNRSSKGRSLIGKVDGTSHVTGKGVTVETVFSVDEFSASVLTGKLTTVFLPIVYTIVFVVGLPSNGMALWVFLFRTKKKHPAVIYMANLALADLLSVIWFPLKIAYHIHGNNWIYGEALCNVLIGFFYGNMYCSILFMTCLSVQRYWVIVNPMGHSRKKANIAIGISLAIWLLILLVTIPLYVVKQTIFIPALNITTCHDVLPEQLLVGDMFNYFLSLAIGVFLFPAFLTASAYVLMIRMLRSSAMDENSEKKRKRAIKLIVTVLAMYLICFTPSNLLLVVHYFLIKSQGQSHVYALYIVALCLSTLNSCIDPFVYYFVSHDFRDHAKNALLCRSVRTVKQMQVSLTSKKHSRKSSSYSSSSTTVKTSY
Assay: In vitro human PAR-2 functional antagonist activity using calcium assays (Fluo4AM, FLIPR Tetra)
Assay type: cell-based
Details: HEK-293 T cells stimulated by an EC80 of the 2-Furoyl-LIGRLO-NH2 peptide after 10 min incubation with compound; 20 concentrations, duplicate, two independent experiments
Experimental: In vitro human PAR-2 functional antagonist activity using calcium assays
Examples of the present invention were tested successively for their agonist and antagonist activities on human PAR-2 (hPAR-2) receptor expressed in HEK-293 T cells in an endogenous manner. Compounds exert agonist activity if, by themselves in absence of the 2-Furoyl-LIGRLO-NH2 peptide (selective hPAR-2 agonist), they activate PAR-2; they exert antagonist activity if they decrease the action of the 2-Furoyl-LIGRLO-NH2 peptide on the receptor. The assay used to determine compound activity is based on calcium measurement.
Cell Culture: HEK-293 T cells were maintained in Dulbecco's Modified Eagle's Medium supplemented with 10% Foetal Calf Serum, 1% Penicillin/Streptomycin at 37° C./5% CO2. Flasks for tests (F75) are seeded with 6e+06 cells 24 h before the experiment at 37° C./5% CO2.
Calcium assay: Receptor activity was detected by changes in intracellular calcium measured using the fluorescent Ca^2+ sensitive dye, Fluo4AM (Molecular Probes).
The day of the assay, medium was replaced by assay buffer (HBSS 1× (Gibco 14175-053), Hepes 20 mM, MgSO4-7H2O 1 mM, Na2CO3 3.3 mM, CaCl2-2H2O 1.3 mM, 0.5% BSA, Probenecid 2.5 mM, 0.1 mg/mL Pluronic Acid) and complemented with 1 μM Fluo4AM and cells were incubated during 1:30 h at 37° C.
Cells were then detached, resuspended in assay buffer and seeded in 384 wells, transparent-flat bottom black walled plates (2e+04 cells per well). Plates were incubated at +22° C. for 20 min. Compounds stock solutions were prepared in 100% DMSO and dilutions in test buffer were carried out in polypropylene plates with a digital dispenser (D300e, Tecan). Compounds were added to the cells and intracellular Ca^2+ measurements were collected at the same time on FLIPR Tetra® (Molecular Devices) with specific filters (Exc: 470-495 nm/Em: 515-575 nm).
Agonist and antagonist activities of compounds were consecutively evaluated on the same cell plate. Agonist activity was first measured after 10 min incubation with the compound alone. Then, cells were stimulated by an EC80 of the 2-Furoyl-LIGRLO-NH2 peptide and fluorescence was recorded for an additional 5 min. EC80 of the 2-Furoyl-LIGRLO-NH2 peptide was the concentration giving 80% of the maximal 2-Furoyl-LIGRLO-NH2 response. Agonist activities are evaluated in comparison to basal signals evoked by assay buffer or maximal 2-Furoyl-LIGRLO-NH2 response. […] Antagonist activities are evaluated in comparison to basal signals evoked by assay buffer or EC80 of 2-Furoyl-LIGRLO-NH2 alone.

SMILES | IC50 [nM]
CC1(C)C(=O)NCCN1C(=O)c1ccc2c(-c3ccc(Cl)c(F)c3)cn(CCn3cccn3)c2n1 [Example 61, 4-(1-(2-(1H-pyrazol-1-yl)ethyl)-3-(4-chloro-3-fluorophenyl)-1H-pyrrolo[2,3-b]pyridine-6-carbonyl)-3,3-dimethylpiperazin-2-one] | 20 to 10000
CC(C)(C)n1cc(-c2ccc(Cl)c(F)c2)c2ccc(C(=O)N3CCC4(NC(=O)NC4=O)C(F)(F)C3)nc21 (stereo not shown) [Example 201, 8-(1-(tert-butyl)-3-(4-chloro-3-fluorophenyl)-1H-pyrrolo[2,3-b]pyridine-6-carbonyl)-6,6-difluoro-1,3,8-triazaspiro[4.5]decane-2,4-dione] | 20 to 10000
Cc1cc(N2CCN(C(=O)c3ccc4c(-c5ccc(Cl)c(F)c5)cn(C(C)(C)C)c4n3)[C@H](C)C2)nc(C)c1C(=O)O [Example 130, (R)-6-(4-(1-(tert-butyl)-3-(4-chloro-3-fluorophenyl)-1H-pyrrolo[2,3-b]pyridine-6-carbonyl)-3-methylpiperazin-1-yl)-2,4-dimethylnicotinic acid] | 20 to 10000
COC(=O)c1c(C)cc(N2CCN(C(=O)c3ccc4c(n3)c(C(C)(C)C)nn4-c3ccc(Cl)c(F)c3)C(C)(C)C2)nc1C [Example 58, methyl 6-(4-(3-(tert-butyl)-1-(4-chloro-3-fluorophenyl)-1H-pyrazolo[4,3-b]pyridine-5-carbonyl)-3,3-dimethylpiperazin-1-yl)-2,4-dimethylnicotinate] | > 10000
CC(C)Cn1cc(-c2cc3ccccc3o2)c2ccc(C(=O)N3CCNC(=O)C3(C)C)nc21 [Example 224, 4-(3-(benzofuran-2-yl)-1-isobutyl-1H-pyrrolo[2,3-b]pyridine-6-carbonyl)-3,3-dimethylpiperazin-2-one] | 20 to 10000
Cc1cc(N2CCN(C(=O)c3ccc4c(-c5ccc(Cl)c(F)c5)cn(C(C)(C)C)c4n3)CC2CO)nc(C)c1C(=O)O (stereo not shown) [Example 157, 6-(4-(1-(tert-butyl)-3-(4-chloro-3-fluorophenyl)-1H-pyrrolo[2,3-b]pyridine-6-carbonyl)-2-(hydroxymethyl)piperazin-1-yl)-2,4-dimethylnicotinic acid] | 20 to 10000
Cc1nc(Cn2cc(-c3ccc(Cl)c(F)c3)c3ccc(C(=O)N4CCN(c5cc(C)c(C(=O)O)c(C)n5)CC4(C)C)nc32)c(C)o1 [Example 159, 6-(4-(3-(4-chloro-3-fluorophenyl)-1-((2,5-dimethyloxazol-4-yl)methyl)-1H-pyrrolo[2,3-b]pyridine-6-carbonyl)-3,3-dimethylpiperazin-1-yl)-2,4-dimethylnicotinic acid] | 20 to 10000
Cc1cc(N2CCN(C(=O)c3ccc4c(-c5ccc(Cl)c(F)c5)c(C)n(C)c4n3)C(C)(C)C2)nc(C)c1C(=O)O [Example 119, 6-(4-(3-(4-chloro-3-fluorophenyl)-1,2-dimethyl-1H-pyrrolo[2,3-b]pyridine-6-carbonyl)-3,3-dimethylpiperazin-1-yl)-2,4-dimethylnicotinic acid] | 20 to 10000
CC(C)(C)c1nc(-c2ccc(Cl)cc2)n2ccc(C(=O)N3CCN(c4ccc(C(=O)O)cn4)CC3(C)C)nc12 [Example 217, 6-(4-(8-(tert-butyl)-6-(4-chlorophenyl)imidazo[1,5-a]pyrimidine-2-carbonyl)-3,3-dimethylpiperazin-1-yl)nicotinic acid] | 20 to 10000
Cc1cc(N2CCN(C(=O)c3ccc4c(-c5ccc(Cl)c(F)c5)cn(C[C@H]5CCCO5)c4n3)C(C)(C)C2)nc(C)c1C(=O)O [Example 212, (R)-6-(4-(3-(4-chloro-3-fluorophenyl)-1-((tetrahydrofuran-2-yl)methyl)-1H-pyrrolo[2,3-b]pyridine-6-carbonyl)-3,3-dimethylpiperazin-1-yl)-2,4-dimethylnicotinic acid] | < 20

The remaining lines, values ahead:

IC50 [nM] | SMILES
< 20 | Cc1cc(N2CCN(C(=O)c3ccc4c(-c5ccc(Cl)c(F)c5)cn(CC5(C)CCOCC5)c4n3)C(C)(C)C2)nc(C)c1C(=O)O [Example 183, 6-(4-(3-(4-chloro-3-fluorophenyl)-1-((4-methyltetrahydro-2H-pyran-4-yl)methyl)-1H-pyrrolo[2,3-b]pyridine-6-carbonyl)-3,3-dimethylpiperazin-1-yl)-2,4-dimethyinicotinic acid]
< 20 | COCCn1cc(-c2ccc(Cl)c(F)c2)c2ccc(C(=O)N3CCN(c4cc(C)c(C(=O)O)c(C)n4)CC3(C)C)nc21 [Example 134, 6-(4-(3-(4-chloro-3-fluorophenyl)-1-(2-methoxyethyl)-1H-pyrrolo[2,3-b]pyridine-6-carbonyl)-3,3-dimethylpiperazin-1-yl)-2,4-dimethyinicotinic acid]
< 20 | Cc1cc(N2CCN(C(=O)c3ccc4c(-c5ccc(Cl)c(F)c5)cn(C(C)C)c4n3)C(C)(C)C2)nc(C)c1C(=O)O [Example 97, 6-(4-(3-(4-chloro-3-fluorophenyl)-1-isopropyl-1H-pyrrolo[2,3-b]pyridine-6-carbonyl)-3,3-dimethylpiperazin-1-yl)-2,4-dimethyinicotinic acid]
< 20 | Cc1cc(N2CCN(C(=O)c3ccc4c(-c5ccc(Cl)c(F)c5)cn(C(C)(C)C)c4n3)C(C)(C)C2)nc(C)c1C(=O)O [Example 26, 6-(4-(1-(tert-butyl)-3-(4-chloro-3-fluorophenyl)-1H-pyrrolo[2,3-b]pyridine-6-carbonyl)-3,3-dimethylpiperazin-1-yl)-2,4-dimethylnicotinic acid]
< 20 | Cc1c(-c2ccc(Cl)c(F)c2)c2ccc(C(=O)N3CCNC(=O)C3(C)C)nc2n1CC(C)C [Example 38, 4-(3-(4-chloro-3-fluorophenyl)-1-isobutyl-2-methyl-1H-pyrrolo[2,3-b]pyridine-6-carbonyl)-3,3-dimethylpiperazin-2-one]
< 20 | CC(C)(C#N)c1ccnc(N2CCN(C(=O)c3ccc4c(-c5ccc(Cl)c(F)c5)cn(C(C)(C)C)c4n3)C(C)(C)C2)c1 [Example 176, 2-(2-(4-(1-(tert-butyl)-3-(4-chloro-3-fluorophenyl)-1H-pyrrolo[2,3-b]pyridine-6-carbonyl)-3,3-dimethylpiperazin-1-yl)pyridin-4-yl)-2-methylpropanenitrile]
< 20 | Cc1cc(N2CCN(C(=O)c3ccc4c(-c5ccc(Cl)c(F)c5)cn(C[C@@H]5CCCO5)c4n3)C(C)(C)C2)nc(C)c1C(=O)O [Example 211, (S)-6-(4-(3-(4-chloro-3-fluorophenyl)-1-((tetrahydrofuran-2-yl)methyl)-1H-pyrrolo[2,3-b]pyridine-6-carbonyl)-3,3-dimethylpiperazin-1-yl)-2,4-dimethylnicotinic acid]
< 20 | Cc1cc(N2CCN(C(=O)c3ccc4c(-c5cc(F)c(F)c(F)c5)cn(CC(C)C)c4n3)C(C)(C)C2)nc(C)c1C(=O)O [Example 143, 6-(4-(1-isobutyl-3-(3,4,5-trifluorophenyl)-1H-pyrrolo[2,3-b]pyridine-6-carbonyl)-3,3-dimethylpiperazin-1-yl)-2,4-dimethylnicotinic acid]
< 20 | Cc1cc(N2CCN(C(=O)c3ccc4c(-c5ccc(Cl)c(F)c5)cn(C5(C)CCC5)c4n3)C(C)(C)C2)nc(C)c1C(=O)O [Example 121, 6-(4-(3-(4-chloro-3-fluorophenyl)-1-(1-methylcyclobutyl)-1H-pyrrolo[2,3-b]pyridine-6-carbonyl)-3,3-dimethylpiperazin-1-yl)-2,4-dimethylnicotinic acid]
